The target in assay [1] is cGMP-inhibited 3',5'-cyclic phosphodiesterase 3A (Homo sapiens, UniProt Q14432). In kind it is functional.
Assay [2] deals with Sodium-dependent noradrenaline transporter (Homo sapiens, UniProt P23975).
The next assay addresses T1, Estrogen receptor (Homo sapiens, UniProt P03372).
T1 sequence (P03372 whole entry): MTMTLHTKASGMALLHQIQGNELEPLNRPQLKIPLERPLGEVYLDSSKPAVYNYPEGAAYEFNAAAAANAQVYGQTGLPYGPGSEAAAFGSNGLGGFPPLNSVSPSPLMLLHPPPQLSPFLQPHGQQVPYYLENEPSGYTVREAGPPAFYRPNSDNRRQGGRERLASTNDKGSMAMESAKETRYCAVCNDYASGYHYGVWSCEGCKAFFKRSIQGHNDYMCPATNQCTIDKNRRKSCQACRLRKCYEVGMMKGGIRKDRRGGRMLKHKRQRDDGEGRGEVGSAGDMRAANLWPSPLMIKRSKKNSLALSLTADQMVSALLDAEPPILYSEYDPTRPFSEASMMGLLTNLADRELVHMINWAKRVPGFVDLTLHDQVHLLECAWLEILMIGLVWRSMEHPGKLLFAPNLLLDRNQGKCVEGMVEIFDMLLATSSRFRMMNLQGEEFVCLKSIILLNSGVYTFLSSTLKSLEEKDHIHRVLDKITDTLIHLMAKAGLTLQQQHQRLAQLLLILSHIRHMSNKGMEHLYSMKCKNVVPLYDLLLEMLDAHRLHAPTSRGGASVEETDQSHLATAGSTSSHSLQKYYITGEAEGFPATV

Another assay addresses T2, Thromboxane A2 receptor (Homo sapiens, UniProt P21731).
T2 sequence (P21731 whole entry): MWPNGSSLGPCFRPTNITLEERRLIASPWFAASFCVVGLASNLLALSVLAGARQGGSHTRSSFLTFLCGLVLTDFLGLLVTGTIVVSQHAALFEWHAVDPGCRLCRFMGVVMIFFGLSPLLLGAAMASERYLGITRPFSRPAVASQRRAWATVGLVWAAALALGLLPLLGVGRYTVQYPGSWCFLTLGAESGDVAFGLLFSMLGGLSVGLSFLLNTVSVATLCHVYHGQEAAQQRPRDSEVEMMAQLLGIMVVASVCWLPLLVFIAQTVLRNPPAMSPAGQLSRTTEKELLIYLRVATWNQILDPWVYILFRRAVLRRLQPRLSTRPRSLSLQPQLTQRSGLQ
It counts as functional, cell-based.

Assay [3] deals with T3, Alpha-2A adrenergic receptor (Homo sapiens, UniProt P08913).
T3 sequence (P08913 whole entry): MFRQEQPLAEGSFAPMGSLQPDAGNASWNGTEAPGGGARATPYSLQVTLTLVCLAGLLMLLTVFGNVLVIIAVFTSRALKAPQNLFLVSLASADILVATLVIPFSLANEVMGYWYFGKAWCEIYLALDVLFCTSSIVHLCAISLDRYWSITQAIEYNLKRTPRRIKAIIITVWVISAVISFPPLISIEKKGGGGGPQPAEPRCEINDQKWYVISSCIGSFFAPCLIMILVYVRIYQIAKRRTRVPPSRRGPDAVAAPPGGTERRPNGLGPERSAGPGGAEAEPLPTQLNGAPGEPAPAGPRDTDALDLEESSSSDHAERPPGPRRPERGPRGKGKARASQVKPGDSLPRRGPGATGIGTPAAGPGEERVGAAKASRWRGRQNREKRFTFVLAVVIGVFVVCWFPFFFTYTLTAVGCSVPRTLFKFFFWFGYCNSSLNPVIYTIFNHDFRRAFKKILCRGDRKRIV

The target of assay [4] is 3',5'-cyclic-AMP phosphodiesterase 4A (Homo sapiens, UniProt P27815). It counts as functional.
Assay [5] addresses T4, Prostaglandin G/H synthase 1 (Homo sapiens, UniProt P23219). In kind it is functional.
Assay [6] has as its target T5, Muscarinic acetylcholine receptor M2 (Homo sapiens, UniProt P08172).
T5 sequence (P08172 whole entry): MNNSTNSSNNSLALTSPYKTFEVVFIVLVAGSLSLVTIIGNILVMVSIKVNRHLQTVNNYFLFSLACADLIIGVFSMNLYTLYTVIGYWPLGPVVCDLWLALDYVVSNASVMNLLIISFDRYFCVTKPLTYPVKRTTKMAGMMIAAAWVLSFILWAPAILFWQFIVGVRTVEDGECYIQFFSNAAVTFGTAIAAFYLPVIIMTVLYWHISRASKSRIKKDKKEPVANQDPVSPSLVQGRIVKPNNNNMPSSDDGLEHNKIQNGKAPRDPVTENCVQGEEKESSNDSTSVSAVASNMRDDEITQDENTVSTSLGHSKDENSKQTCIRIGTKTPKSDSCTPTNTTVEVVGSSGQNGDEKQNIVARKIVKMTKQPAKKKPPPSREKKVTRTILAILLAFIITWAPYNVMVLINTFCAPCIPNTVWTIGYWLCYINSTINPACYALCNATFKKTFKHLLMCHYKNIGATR

Assay [7] deals with T4, Prostaglandin G/H synthase 1. In kind it is functional. The source holds these as a separate data set.

AC50 data for 15 compounds are collected here from ChEMBL document CHEMBL5291721, “A preclinical secondary pharmacology resource illuminates target-adverse drug reaction associations of marketed drugs” (Nat Commun, 2023).
Also: assay procedure not described here.

Chain of 3',5'-cyclic-AMP phosphodiesterase 4A (P27815 whole entry): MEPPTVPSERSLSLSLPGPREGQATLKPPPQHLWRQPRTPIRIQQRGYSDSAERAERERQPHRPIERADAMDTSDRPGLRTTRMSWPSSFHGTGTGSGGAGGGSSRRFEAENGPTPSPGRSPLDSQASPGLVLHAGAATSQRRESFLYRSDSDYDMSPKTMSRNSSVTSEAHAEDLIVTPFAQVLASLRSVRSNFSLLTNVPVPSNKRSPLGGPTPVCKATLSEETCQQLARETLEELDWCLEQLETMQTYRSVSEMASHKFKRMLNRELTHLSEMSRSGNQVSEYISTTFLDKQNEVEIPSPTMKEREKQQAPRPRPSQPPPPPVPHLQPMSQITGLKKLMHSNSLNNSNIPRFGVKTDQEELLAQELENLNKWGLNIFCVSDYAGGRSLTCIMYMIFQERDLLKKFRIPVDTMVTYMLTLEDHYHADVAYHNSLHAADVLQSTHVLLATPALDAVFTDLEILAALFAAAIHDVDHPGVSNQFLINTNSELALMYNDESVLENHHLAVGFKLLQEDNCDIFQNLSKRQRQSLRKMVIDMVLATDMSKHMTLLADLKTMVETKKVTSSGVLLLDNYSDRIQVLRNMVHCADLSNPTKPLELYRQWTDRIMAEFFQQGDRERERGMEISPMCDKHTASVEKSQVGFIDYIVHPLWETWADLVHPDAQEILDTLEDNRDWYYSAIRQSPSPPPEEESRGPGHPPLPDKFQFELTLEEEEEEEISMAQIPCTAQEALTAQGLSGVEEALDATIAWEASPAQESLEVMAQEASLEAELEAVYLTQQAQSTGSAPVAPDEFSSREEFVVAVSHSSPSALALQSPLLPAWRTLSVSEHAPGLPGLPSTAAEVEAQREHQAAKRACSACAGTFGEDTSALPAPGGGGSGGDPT
Chain of cGMP-inhibited 3',5'-cyclic phosphodiesterase 3A (Q14432 whole entry): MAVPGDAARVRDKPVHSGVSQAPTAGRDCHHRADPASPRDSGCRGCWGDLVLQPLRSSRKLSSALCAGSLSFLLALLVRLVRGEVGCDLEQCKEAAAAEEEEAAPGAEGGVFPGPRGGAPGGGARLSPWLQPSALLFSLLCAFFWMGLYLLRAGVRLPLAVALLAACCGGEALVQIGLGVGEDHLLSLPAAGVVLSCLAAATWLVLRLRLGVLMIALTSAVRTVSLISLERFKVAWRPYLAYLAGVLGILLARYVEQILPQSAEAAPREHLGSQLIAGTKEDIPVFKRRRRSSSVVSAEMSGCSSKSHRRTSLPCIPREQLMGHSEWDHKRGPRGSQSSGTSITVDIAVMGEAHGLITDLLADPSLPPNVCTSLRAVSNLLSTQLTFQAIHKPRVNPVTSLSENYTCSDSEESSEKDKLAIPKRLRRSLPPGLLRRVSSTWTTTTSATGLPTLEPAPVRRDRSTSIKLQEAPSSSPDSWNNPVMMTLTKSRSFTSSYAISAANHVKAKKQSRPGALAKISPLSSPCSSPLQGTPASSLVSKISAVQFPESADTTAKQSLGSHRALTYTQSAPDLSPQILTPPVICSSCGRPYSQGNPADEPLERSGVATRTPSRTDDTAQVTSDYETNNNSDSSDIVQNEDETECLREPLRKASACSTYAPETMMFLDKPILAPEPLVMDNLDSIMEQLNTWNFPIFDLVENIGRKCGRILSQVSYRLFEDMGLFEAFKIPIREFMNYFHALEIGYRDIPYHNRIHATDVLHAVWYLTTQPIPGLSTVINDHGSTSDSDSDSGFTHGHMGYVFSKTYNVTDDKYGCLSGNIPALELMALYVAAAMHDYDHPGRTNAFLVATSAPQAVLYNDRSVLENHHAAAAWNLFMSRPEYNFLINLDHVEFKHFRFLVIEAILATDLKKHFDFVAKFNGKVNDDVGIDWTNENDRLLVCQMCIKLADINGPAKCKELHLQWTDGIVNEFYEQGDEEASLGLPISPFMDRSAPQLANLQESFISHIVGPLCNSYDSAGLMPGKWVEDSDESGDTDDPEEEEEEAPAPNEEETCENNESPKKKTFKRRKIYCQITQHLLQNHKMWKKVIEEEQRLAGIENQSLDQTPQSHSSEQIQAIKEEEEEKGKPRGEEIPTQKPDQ
Chain of Sodium-dependent noradrenaline transporter (P23975 whole entry): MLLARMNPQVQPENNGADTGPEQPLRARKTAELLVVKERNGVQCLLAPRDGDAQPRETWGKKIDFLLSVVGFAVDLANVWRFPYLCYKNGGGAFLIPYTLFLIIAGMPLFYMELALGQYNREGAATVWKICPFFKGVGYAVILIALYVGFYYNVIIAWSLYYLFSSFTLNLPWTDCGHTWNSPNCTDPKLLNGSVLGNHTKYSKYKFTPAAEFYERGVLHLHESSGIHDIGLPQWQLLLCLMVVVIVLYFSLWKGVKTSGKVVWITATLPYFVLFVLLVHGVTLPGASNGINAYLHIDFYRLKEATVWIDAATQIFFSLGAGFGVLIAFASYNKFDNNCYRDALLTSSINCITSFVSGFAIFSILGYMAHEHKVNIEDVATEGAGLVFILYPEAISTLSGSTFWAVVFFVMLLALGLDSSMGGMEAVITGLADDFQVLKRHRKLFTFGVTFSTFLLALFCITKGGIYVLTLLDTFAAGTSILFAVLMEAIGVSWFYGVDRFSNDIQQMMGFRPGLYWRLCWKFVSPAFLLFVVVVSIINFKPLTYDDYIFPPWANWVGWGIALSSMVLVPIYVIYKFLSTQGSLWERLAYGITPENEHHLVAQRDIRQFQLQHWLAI
T4 sequence (P23219 whole entry): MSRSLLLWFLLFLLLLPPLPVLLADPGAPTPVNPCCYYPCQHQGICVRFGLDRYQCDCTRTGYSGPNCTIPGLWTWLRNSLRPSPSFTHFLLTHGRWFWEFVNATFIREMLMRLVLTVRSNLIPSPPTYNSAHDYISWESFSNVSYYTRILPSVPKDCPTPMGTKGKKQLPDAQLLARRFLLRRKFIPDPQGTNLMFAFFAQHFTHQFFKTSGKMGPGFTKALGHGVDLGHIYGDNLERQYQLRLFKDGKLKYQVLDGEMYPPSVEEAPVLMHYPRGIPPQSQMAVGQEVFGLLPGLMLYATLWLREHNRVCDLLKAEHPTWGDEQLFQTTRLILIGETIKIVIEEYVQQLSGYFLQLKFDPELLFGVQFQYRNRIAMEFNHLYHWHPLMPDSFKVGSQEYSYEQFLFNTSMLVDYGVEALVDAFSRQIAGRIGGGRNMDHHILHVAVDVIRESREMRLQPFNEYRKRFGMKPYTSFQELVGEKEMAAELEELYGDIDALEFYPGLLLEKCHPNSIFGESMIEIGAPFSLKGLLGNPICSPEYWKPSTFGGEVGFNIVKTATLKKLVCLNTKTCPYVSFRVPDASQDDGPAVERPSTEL

Take `CCOC(=O)C(c1c(O)c2ccccc2oc1=O)c1c(O)c2ccccc2oc1=O` [ETHYL BISCOUMACETATE]: the AC50 (in assay [1]; in [2]; at Estrogen receptor; on Thromboxane A2 receptor; in assay [3]; in assay [4]) was > 30 µM each time. The AC50 in assay [5], in assay [6] and in assay [7] was > 30 µM throughout.
As to `CN1C(=O)N(C)C2C1N(C)C(=O)N2C` (stereo not given) [MEBICAR], the AC50 (in assay [1]; in [2]; on Estrogen receptor; at Thromboxane A2 receptor; in [3]; in [4]) was > 30 µM each time. Further, the AC50 in assay [5], in assay [6] and in [7] was > 30 µM in each case.
In the case of `CCS(=O)(=O)N1CC(CC#N)(n2cc(-c3ncnc4[nH]ccc34)cn2)C1` [BARICITINIB], the AC50 was > 30 µM in assay [1]; > 30 µM in [2]; > 30 µM at Estrogen receptor; > 10 µM on Thromboxane A2 receptor; > 30 µM in [3]; > 30 µM in assay [4]. For the same compound, the AC50 in assay [5], in assay [6] and in assay [7] was > 30 µM in each case.
`CC(C)=CCC1C(=O)N(c2ccccc2)N(c2ccccc2)C1=O` [FEPRAZONE]: the AC50 (in assay [1]; in assay [2]; at Estrogen receptor; on Thromboxane A2 receptor; in assay [3]; in [4]) was > 30 µM in each case. The AC50 is 0.26 µM in assay [5], > 30 µM in assay [6] and > 30 µM in [7].
Take `CC1=NN(c2ccccc2)C(=O)C1` [EDARAVONE]: the AC50 (in assay [1]; in [2]; at Estrogen receptor; on Thromboxane A2 receptor; in assay [3]; in assay [4]) was > 30 µM throughout. In addition, the concentration at half-maximal activity (AC50) in assay [5] was > 30 µM; in assay [6], 26.5 µM; in assay [7], 12.5 µM.
Regarding `CN1CCC2=C(C1)c1ccccc1Cc1ccccc12` [SETIPTILINE], the half-maximal activity concentration (AC50) in [1] is > 30 µM; in assay [2], 3.52 µM; on Estrogen receptor, > 30 µM; at Thromboxane A2 receptor it was > 30 µM; in [3], 0.0996 µM; in assay [4], > 30 µM. Besides, the half-maximal activity concentration (AC50) in assay [5] is > 30 µM; in assay [6], 0.855 µM; in assay [7], > 30 µM.
`O=C(NC1CCN(CCCCC2(C(=O)NCC(F)(F)F)c3ccccc3-c3ccccc32)CC1)c1ccccc1-c1ccc(C(F)(F)F)cc1` [LOMITAPIDE]: the AC50 in assay [1] is > 30 µM; in assay [2], 2.2 µM; on Estrogen receptor it was > 30 µM; on Thromboxane A2 receptor it was > 1 µM; in assay [3], 13.2 µM; in [4] it was > 30 µM. Besides, the AC50 was 23.2 µM in assay [5], 22.6 µM in assay [6] and > 30 µM in [7].
Consider `CCC1C(C)=NN=C(c2ccc(OC)c(OC)c2)c2cc(OC)c(OC)cc21` (stereo not given) [TOFISOPAM], for which the AC50 in [1] is 6.62 µM; in assay [2], > 30 µM; at Estrogen receptor, > 30 µM; at Thromboxane A2 receptor, > 30 µM; in assay [3] it was > 30 µM; in assay [4], 0.319 µM. In addition, the AC50 in assay [5], in assay [6] and in [7] was > 30 µM each time.
As for `C[C@@H]1C[C@H]2[C@@H]3C[C@H](F)C4=CC(=O)C(Cl)=C[C@]4(C)[C@@]3(F)[C@@H](O)C[C@]2(C)[C@@]1(O)C(=O)CO` [HALOMETASONE], the half-maximal activity concentration (AC50) in assay [1] is > 30 µM; in assay [2], > 30 µM; at Estrogen receptor, > 30 µM; on Thromboxane A2 receptor, 18.6 µM; in [3], > 30 µM; in [4], > 30 µM. For the same compound, the AC50 in [5], in assay [6] and in [7] was > 30 µM in each case.
For `COc1ccc(CCC(C)NCC(O)c2ccc(O)c([S+](C)[O-])c2)cc1` (stereo not given) [SULFINALOL], the AC50 is > 30 µM in [1]; 10.6 µM in [2]; > 30 µM at Estrogen receptor; > 30 µM at Thromboxane A2 receptor; > 30 µM in assay [3]; > 30 µM in assay [4]. Also, the AC50 in assay [5], in [6] and in assay [7] was > 30 µM in each case.
Turning to `O=C1CN=C(c2ccccc2)c2c(sc3c2CCCC3)N1` [BENTAZEPAM], the AC50 in assay [1] is > 30 µM; in [2] it was > 30 µM; at Estrogen receptor, > 30 µM; at Thromboxane A2 receptor, > 30 µM; in [3], 23.9 µM; in [4], 15.7 µM. The AC50 was > 30 µM in [5], > 30 µM in assay [6] and > 1 µM in [7].
For `O=C(O)CCCN1CCC(O[C@@H](c2ccc(Cl)cc2)c2ccccn2)CC1` [BEPOTASTINE], the AC50 (in [1]; in [2]; at Estrogen receptor; at Thromboxane A2 receptor; in assay [3]; in assay [4]) was > 30 µM throughout. Moreover, the AC50 in assay [5], in [6] and in assay [7] was > 30 µM throughout.
`O=C(O)CCn1c2c(c3ccccc31)C[C@H](NS(=O)(=O)c1ccc(F)cc1)CC2` [RAMATROBAN]: the AC50 in assay [1] was > 30 µM; in [2], > 30 µM; at Estrogen receptor it was > 10 µM; on Thromboxane A2 receptor, 0.04 µM; in assay [3], > 30 µM; in assay [4] it was > 30 µM. Also, the AC50 in [5], in assay [6] and in [7] was > 30 µM each time.
In the case of `CCC(Cc1c(I)cc(I)c(N)c1I)C(=O)O` (stereo not given) [IOPANOIC ACID], the AC50 in [1] was > 30 µM; in [2] it was > 30 µM; on Estrogen receptor, > 30 µM; on Thromboxane A2 receptor, 14.4 µM; in assay [3], > 30 µM; in assay [4] it was 12.2 µM. Moreover, the AC50 in assay [5], in assay [6] and in assay [7] was > 30 µM in each case.
In the case of `O=[N+]([O-])c1cncn1CCN1CCOCC1` [NIMORAZOLE], the AC50 (in assay [1]; in assay [2]; at Estrogen receptor; on Thromboxane A2 receptor; in assay [3]; in assay [4]) was > 30 µM in each case. Moreover, the concentration at half-maximal activity (AC50) in assay [5], in assay [6] and in [7] was > 30 µM in each case.
